Experimental data published in ChEMBL document CHEMBL4622979, “Non-rigid Diarylmethyl Analogs of Baloxavir as Cap-Dependent Endonuclease Inhibitors of Influenza Viruses” (J Med Chem, 2020).
The source made the active and inactive calls. No cut-off for these calls is given here.

Tests used:
[1] = Cytotoxicity against MDCK cells assessed as reduction in cell viability by ATP bioluminescence assay; format: cell-based, Canis lupus familiaris; conditions: dog
[2] = Selectivity ratio of CC50 for human HepG2 cells assessed as reduction in cell viability measured after 24 hrs in presence of glucose to CC50 for human HepG2 cells assessed as reduction in cell viability measured after 24 hrs in presence of galactose; format: cell-based
Influenza B virus [3] = assay: Antiviral activity against Victoria lineage of Influenza B virus (B/Brisbane/60/2008) infected in MDCK cells assessed as protection against virus-induced cell death measured 72 to 96 hrs post-infection by CellTiter-Glo assay; format: functional, organism-based; conditions: B/Brisbane/60/2008, MDCK
[4] = Protein binding in human plasma at 1 uM measured after 4 hrs by LC-MS/MS analysis; format: ADME, cell-free; conditions: read-out: PPB (converted)
[5] = Cytotoxicity against human HepG2 cells assessed as reduction in cell viability measured after 24 hrs in presence of galactose by MTT assay; format: cell-based
[6] = Stability in rat liver S9 fraction assessed as parent compound remaining at 1 uM measured after 4 hrs by LC-MS/MS analysis; format: ADME, subcellular; conditions: read-out: Stability
[7] = Stability in mouse liver S9 fraction assessed as parent compound remaining at 1 uM measured after 4 hrs by LC-MS/MS analysis; format: ADME, subcellular; conditions: read-out: Stability
[8] = Ratio of Cmax in CD1 mouse lung to plasma at 10 mg/kg, po administered as single dose by LC-MS/MS analysis; format: ADME, organism-based; conditions: lung and plasma
[9] = Stability in mouse plasma assessed as parent compound remaining at 1 uM measured after 4 hrs by LC-MS/MS analysis; format: ADME, cell-free; conditions: read-out: Stability
[10] = Stability in human liver S9 fraction assessed as parent compound remaining at 1 uM measured after 4 hrs by LC-MS/MS analysis; format: ADME, subcellular; conditions: read-out: Stability
[11] = Cmax in CD1 mouse lung at 10 mg/kg, po administered as single dose by LC-MS/MS analysis; format: ADME, organism-based; design: dose 10 mg/kg, route oral
[12] = Selectivity index, ratio of CC50 for MDCK cells to EC50 for Influenza A/California/04/2009 (H1N1)pdm09 virus infected in MDCK cells; format: toxicity, cell-based; conditions: dog, read-out: Ratio CC50/EC50
[13] = Stability in simulated gastric fluid assessed as parent compound remaining at 1 uM measured after 4 hrs at pH 1.2 by LC-MS/MS analysis; format: physicochemical; conditions: read-out: Stability
[14] = Toxicity in Influenza A/California/04/2009 (H1N1)pdm09 infected specific pathogen-free BALB/c mouse assessed as effect on body weight at 20 to 50 mg/kg, po administered via gavage immediately after infection and at 12 hrs post-infection measured after 10 days post-infection; format: organism-based; conditions: in vivo, 240 h
Influenza A virus [15] = assay: Antiviral activity against Influenza A virus (A/Denmark/524/2009(H1N1)) pdm09 infected in MDCK cells assessed as protection against virus-induced cell death measured 72 to 96 hrs post-infection by CellTiter-Glo assay; format: functional, organism-based; conditions: A/Denmark/524/2009(H1N1) pdm09, MDCK
Influenza A virus [16] = assay: (§1) Antiviral activity against Influenza A/California/04/2009 (H1N1)pdm09 infected in specific pathogen-free BALB/c mouse assessed as protection against virus-induced mouse death at 50 mg/kg, po administered via gavage immediately after infection and at 12 hrs post-infection measured on 16 days post-infection relative to control; format: functional
HEK-293T [17] = assay: (§2) Inhibition of CEN polymerase activity in Influenza A/California/04/2009 (H1N1)pdm09 NP/PA/PB1/PB2 complex transfected in HEK293T cells co-expressing beta-galactosidase at 100 nM preincubated for 3 hrs followed by viral gene transfection and measured after 24 hrs by ONPG substrate based luciferase reporter gene mini-replicon assay relative to control; format: cell-based; conditions: Influenza A virus (A/California/04/2009(H1N1))
[18] = Ratio of AUClast in CD1 mouse lung to plasma at 10 mg/kg, po administered as single dose by LC-MS/MS analysis; format: ADME, organism-based; conditions: lung and plasma, read-out: Ratio AUC
[19] = Stability in rat plasma assessed as parent compound remaining at 1 uM measured after 4 hrs by LC-MS/MS analysis; format: ADME, cell-free; conditions: read-out: Stability
[20] = AUClast in CD1 mouse plasma at 10 mg/kg, po administered as single dose by LC-MS/MS analysis; format: ADME, organism-based; design: dose 10 mg/kg, route oral, time 0 - last
Influenza A virus H3N2 = assay: Antiviral activity against Influenza A virus (A/Fukui/20/2004 (H3N2)) infected in MDCK cells assessed as protection against virus-induced cell death measured 72 to 96 hrs post-infection by CellTiter-Glo assay; format: functional, organism-based; conditions: A/Fukui/20/2004, MDCK
[21] = Cytotoxicity against human MRC5 cells assessed as reduction in cell viability by ATP bioluminescence assay; format: cell-based
[22] = Protein binding in rat plasma at 1 uM measured after 4 hrs by LC-MS/MS analysis; format: ADME, cell-free; conditions: read-out: PPB (converted)
Influenza A virus [23] = assay: as §1, with “20” for “50”; format: functional
[24] = Toxicity in Influenza A/California/04/2009 (H1N1)pdm09 infected specific pathogen-free BALB/c mouse assessed as reduction in body weight at 20 to 50 mg/kg, po administered via gavage immediately after infection and at 12 hrs post-infection measured on 10 days post-infection; format: organism-based; conditions: in vivo, 240 h
HEK-293T [25] = assay: as §2, with “25” for “100”; format: cell-based; conditions: Influenza A virus (A/California/04/2009(H1N1))
[26] = target: dopamine transporter (sodium-dependent dopamine transporter) (Homo sapiens, UniProt Q01959); assay: Binding affinity to human dopamine transporter at 10 uM relative to control; format: ADME; conditions: read-out: Activity
Influenza B virus [27] = assay: Antiviral activity against Yamagata lineage of Influenza B virus (B/Florida/4/2006) infected in MDCK cells assessed as protection against virus-induced cell death measured 72 to 96 hrs post-infection by CellTiter-Glo assay; format: functional, organism-based; conditions: B/Florida/4/2006, MDCK
[28] = AUClast in CD1 mouse plasma at 2 mg/kg, iv administered as single dose by LC-MS/MS analysis; format: ADME, organism-based; design: dose 2 mg/kg, route intravenous, time 0 - last
[29] = Cytotoxicity against MDCK cells assessed as reduction in cell viability by CellTiter-Glo assay; format: cell-based, Canis lupus familiaris; conditions: dog
[30] = Oral bioavailability in CD1 mouse at 10 mg/kg administered as single dose by LC-MS/MS analysis; format: ADME, organism-based; conditions: in vivo
[31] = Protein binding in mouse plasma at 1 uM measured after 4 hrs by LC-MS/MS analysis; format: ADME, cell-free; conditions: read-out: PPB (converted)
[32] = Cytotoxicity against human HepG2 cells assessed as reduction in cell viability measured after 24 hrs in presence of glucose by MTT assay; format: cell-based
[33] = Stability in human plasma assessed as parent compound remaining at 1 uM measured after 4 hrs by LC-MS/MS analysis; format: ADME, cell-free; conditions: read-out: Stability
[34] = AUClast in CD1 mouse lung at 10 mg/kg, po administered as single dose by LC-MS/MS analysis; format: ADME, organism-based; conditions: in vivo
[35] = Cmax in CD1 mouse plasma at 10 mg/kg, po administered as single dose by LC-MS/MS analysis; format: ADME, organism-based; design: dose 10 mg/kg, route oral
[36] = Cytotoxicity against human PBMC cells assessed as reduction in cell viability by ATP bioluminescence assay; format: cell-based
Influenza A virus [37] = assay: Antiviral activity against Influenza A/California/04/2009 (H1N1)pdm09 infected in specific pathogen-free BALB/c mouse assessed as reduction in virus titre in lung at 20 mg/kg, po administered via gavage immediately after infection and at 12 hrs post-infection measured 24 hrs post-infection; format: functional, organism-based
[38] = Stability in simulated intestinal fluid assessed as parent compound remaining at 1 uM measured after 4 hrs at pH 1.2 by LC-MS/MS analysis; format: physicochemical; conditions: read-out: Stability
Influenza A virus [39] = assay: Antiviral activity against Influenza A/California/04/2009 (H1N1)pdm09 infected in MDCK cells assessed as protection against virus-induced cell death by CellTiter-Glo assay; format: functional, organism-based; conditions: A/California/04/2009(H1N1) pdm09, MDCK

Sequence of dopamine transporter (sodium-dependent dopamine transporter) (Q01959 whole entry): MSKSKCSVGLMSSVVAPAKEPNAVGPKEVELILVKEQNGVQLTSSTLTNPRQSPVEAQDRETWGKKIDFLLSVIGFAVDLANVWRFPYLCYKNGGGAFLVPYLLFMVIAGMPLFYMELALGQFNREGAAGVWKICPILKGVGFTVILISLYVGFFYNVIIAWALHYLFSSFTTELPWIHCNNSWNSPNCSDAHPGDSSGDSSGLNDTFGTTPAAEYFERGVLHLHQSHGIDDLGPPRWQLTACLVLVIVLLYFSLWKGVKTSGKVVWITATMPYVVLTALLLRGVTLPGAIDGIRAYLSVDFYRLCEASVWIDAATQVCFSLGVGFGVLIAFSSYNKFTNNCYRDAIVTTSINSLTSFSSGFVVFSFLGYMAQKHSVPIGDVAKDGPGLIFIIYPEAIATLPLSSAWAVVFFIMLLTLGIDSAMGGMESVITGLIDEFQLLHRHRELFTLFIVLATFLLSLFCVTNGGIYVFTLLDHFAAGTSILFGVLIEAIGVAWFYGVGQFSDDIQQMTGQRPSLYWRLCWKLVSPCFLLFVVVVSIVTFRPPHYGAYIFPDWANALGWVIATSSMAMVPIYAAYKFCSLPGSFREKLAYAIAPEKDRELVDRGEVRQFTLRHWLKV

O=C1c2c(O)c(=O)ccn2N(C(c2ccccc2)c2ccccc2)[C@@H]2COCCN12
CC50 [1]: 5.8 µM
selectivity ratio at 24 h [2]: 1.1
EC50 (Influenza B virus [3]): 5.1 to 28.3 µM
fraction unbound at 4 h, 1 µM [4]: 0.033
CC50 at 24 h [5]: 18 µM
remaining at 4 h, 1 µM [6]: 79%
remaining at 4 h, 1 µM [7]: 97.1%
Kp [8]: 2.2
remaining at 4 h, 1 µM [9]: 70.1%
remaining at 4 h, 1 µM [10]: 82.8%
Cmax [11]: 3720 ng/g
selectivity ratio [12]: 654
remaining at 4 h, 1 µM [13]: 96%
Activity [14]: Non-Toxic
EC50 (Influenza A virus [15]): 0.0036 to 0.0125 µM
Activity (Influenza A virus [16]): 60%
inhibition (HEK-293T [17]): 70%
Kp [18]: 3.1
remaining at 4 h, 1 µM [19]: 71.4%
AUC(0-t) [20]: 2420 ng·h/mL
EC50 (Influenza A virus H3N2): 0.0036 to 0.0125 µM
CC50 [21]: > 100 µM
fraction unbound at 4 h, 1 µM [22]: 0.193
Activity (Influenza A virus [23]): 80%
Activity [24]: Toxic
inhibition (HEK-293T [25]): 17.8%
activity at 10 µM [26]: 71.7%
EC50 (Influenza B virus [27]): 5.1 to 28.3 µM
AUC(0-t) [28]: 844 ng·h/mL
CC50 [29]: 12.1 µM
bioavailability [30]: 38.2%
fraction unbound at 4 h, 1 µM [31]: 0.138
CC50 at 24 h [32]: 20 µM
remaining at 4 h, 1 µM [33]: 63.2%
AUClast [34]: 7477 ng·h/g
Cmax [35]: 1660 ng/mL
CC50 [36]: 21 µM
Activity (Influenza A virus [37]): Active
remaining at 4 h, 1 µM [38]: 89.3%
EC50 (Influenza A virus [39]): 0.0185 µM
